The test system of data set [1] is P. aeruginosa (ATCC 15442). Briefly: MIC and MBC, microtiter plate technique. The class given is cell-based. Particulars: ATCC15442, Pseudomonas aeruginosa; for MIC: 24 h, resazurin; for MBC: TTC. In general terms: The colour change of resazurin is a common sign of viable cells or microbes.
Another data set deals with E. coli R4 (ATCC 39543). The data set is described as follows: MIC and MBC, microtiter plate technique. The class given is cell-based. Particulars: Escherichia coli; for MBC: ATCC39543; for MIC: ATCC39543, 24 h.
The test system of the next data set is E. coli R2 (ATCC 39544). Briefly: MIC and MBC, microtiter plate technique. In kind it is cell-based. Conditions: Escherichia coli; for MBC: ATCC39544; for MIC: ATCC39544, 24 h.
A further data set deals with E. cloacae (ATCC 49141). Briefly: MIC and MBC, microtiter plate technique. The class given is cell-based. Particulars: ATCC49141, Enterobacter cloacae; for MIC: 24 h, resazurin; for MBC: TTC.
In data set [2] the target is T1, mushroom tyrosinase (mTYR) (Agaricus bisporus, UniProt C7FF04).
T1 construct: purchased Sigma-Aldrich (Poznan, Poland); host or cells: Agaricus bisporus (extracted natural enzyme)
The data set is described as follows: Tyrosinase assay with L-DOPA as substrate (absorbance at 475 nm). Conditions: 100 µM compound. The class given is biochemical. An excerpt:
Tyrosinase (Tyr) extracted from Agaricus bisporus (mushroom tyrosinase, mTYR) is commonly used as a model enzyme for human Tyr due to its high purity, stability, and commercial availability. It is frequently used in the selection of TYR inhibitors. Following established literature protocols, L-tyrosine and L-DOPA, which serve as substrates for monophenol and diphenol oxidation, respectively, were used to assess the tyrosinase inhibitory activity of synthesized target compounds [21].
Tyrosinase (Tyr) activity was measured using L-DOPA as substrate and phosphate buffer solution (PBS) as blank control, following the method described by Min He et al. (2022) with an ultraviolet spectrophotometer (Carry-300, Agilent Life Sciences and Chemical Analysis, Santa Clara, CA, USA). […] Before the experiment, 2.9 mL of PBS and 0.1 mL of DMSO were used to account for the influence of the background solvent. The inhibitor solution (100 µL), substrate solution (2.8 mL), and Tyr solution (100 µL) were then added to a quartz colorimetric cuvette. After a one-minute mixing period, the absorption spectra of the mixture were continuously recorded at 475 nm using the UV spectrophotometer (Carry-300) for 5 min over a period of every 30 s. The tyrosinase inhibition rate was calculated as follows:Relative enzyme activity (%) = (A1 − A2)/A1 × 100
A1 = Absorbance of L-DOPA and inhibitor.
A2 = Absorbance of L-DOPA, inhibitor, and tyrosinase.

The subject of data set [3] is A. baumannii (ATCC 17978). The data set is described as follows: MIC and MBC, microtiter plate technique. In kind it is cell-based. Particulars: ATCC17978, Acinetobacter baumannii; for MIC: 24 h, resazurin; for MBC: TTC.
A further data set concerns S. aureus (ATCC 23235). The data set is described as follows: microbe, parasite or virus in culture. The class given is cell-based. Particulars: Staphylococcus aureus; for MBC: ATCC23235; for MIC: ATCC23235, 24 h.
In another data set the test system is E. coli R3 (ATCC 11775). The data set is described as follows: MIC and MBC, microtiter plate technique. Conditions: Escherichia coli; for MIC: ATCC11775, 24 h, resazurin; for MBC: ATCC11775, TTC. The class given is cell-based.
The next data set in a line: MTT cytotoxicity assay. The class given is cell-based. Particulars: mouse, BALB/c3T3 mouse embryonic fibroblast cells; 1.0 µM, 24 h; read-out: cell viability. How it is done:
Following the completion of MIC and MBC assays on the analyzed bacterial strains, and subsequent treatment with Fpg protein modified by peptidomimetics along with selected antibiotics, a further MTT assay was conducted to evaluate the cytotoxicity of the compounds employing the BALB/c3T3 mouse embryonic fibroblast cell line (Figure 10).
BALB/c3T3 mouse embryonic fibroblast cells were exposed to peptidomimetics across concentrations ranging from 0.5 µM to 3.5 µM and incubated for a duration of 24 h. […] The highest concentrations (2.5 µM and 3.5 µM) inhibited cell viability, which was reduced to 20.2% and 1.0%, respectively (Figure 10 and Figure S40 in the Supplementary Materials).
The cytotoxic effects of aldehyde 1 and peptidomimetics 5a–r on BALB/c3T3 mouse fibroblast cells were assessed utilizing the MTT assay following a 24 h incubation period across five different concentrations (0.5, 1.0, 1.5, 2.5, and 3.5 µM). The MTT assay is predicated upon the capacity of mitochondrial dehydrogenase enzymes to convert the water-soluble tetrazolium salt, 3-([…])-2,5-diphenyltetrazolium bromide (MTT), into an insoluble formazan product, manifesting as dark blue crystals. These formazan crystals are then dissolved in DMSO or isopropanol, forming a colored solution whose intensity is measured spectrophotometrically within the wavelength range of 492–570 nm. The amount of MTT reduced corresponds to the oxidative activity of the mitochondria, which is directly proportional to the number of metabolically active cells in the population under defined experimental conditions. The MTT assay can also be used to assess cell viability in non-dividing metabolically active cells. It is one of the most widely used methods to assess cytotoxic activity and is recommended by international standards organizations as a reference method.
A general note: Tetrazolium assays rely on reduction of a dye to a coloured formazan, in cell work by metabolically active cells.

The test system of the next data set is E. coli K12 (ATCC 25404). The data set is described as follows: MIC and MBC, microtiter plate technique. In kind it is cell-based. Conditions: Escherichia coli; for MBC: ATCC25404; for MIC: ATCC25404, 24 h.

Each structure is given as a SMILES string. Values after ≈ are worked out from the molar mass of the structure shown. Bounds are passed on as bounds.

T1 sequence (C7FF04 1-392 limits assumed): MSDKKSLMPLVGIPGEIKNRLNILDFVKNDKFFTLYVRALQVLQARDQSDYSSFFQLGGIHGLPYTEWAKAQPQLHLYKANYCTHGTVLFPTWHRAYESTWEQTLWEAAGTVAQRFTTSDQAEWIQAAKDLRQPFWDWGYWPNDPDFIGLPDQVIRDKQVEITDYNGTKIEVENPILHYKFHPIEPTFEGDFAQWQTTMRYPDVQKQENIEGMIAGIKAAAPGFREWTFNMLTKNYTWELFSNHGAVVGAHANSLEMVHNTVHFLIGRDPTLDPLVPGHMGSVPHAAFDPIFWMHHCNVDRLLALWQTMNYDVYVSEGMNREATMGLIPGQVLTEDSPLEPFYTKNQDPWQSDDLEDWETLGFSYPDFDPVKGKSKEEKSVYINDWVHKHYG

What is called inhibition is how much of the control response was suppressed. Usually viability stands for a read-out of living cells in per cent, often relative to untreated cells. Turning to `CCCCN(C(C)=O)C(C(=O)NCc1ccc(OC)cc1)c1ccc(O)c(O)c1` (stereo not drawn) [Compound 5q, 2-(N-butylacetamido)-2-(3,4-dihydroxyphenyl)-N-(4-methoxybenzyl)acetamide], the MIC in [1] amounted to 0.83 µM (≈ 0.332 µg/mL); with E. coli R4 (ATCC 39543), 1.49 µM (≈ 0.597 µg/mL); in the data set on E. coli R2 (ATCC 39544) it was 0.82 µM (≈ 0.328 µg/mL); against E. cloacae (ATCC 49141) it was 0.84 µM (≈ 0.336 µg/mL); in [3], 0.81 µM (≈ 0.324 µg/mL); against S. aureus (ATCC 23235) it was 0.81 µM (≈ 0.324 µg/mL). Moreover, the MIC was determined as 1.13 µM (≈ 0.453 µg/mL) against E. coli R3 (ATCC 11775) and 0.43 µM (≈ 0.172 µg/mL) in the data set with E. coli K12 (ATCC 25404). Besides, the MBC in data set [1] was determined as 0.87 µM (≈ 0.348 µg/mL); in the data set with E. coli R4 (ATCC 39543) it was 1.58 µM (≈ 0.633 µg/mL); with E. coli R2 (ATCC 39544), 1.44 µM (≈ 0.577 µg/mL); against E. cloacae (ATCC 49141), 0.85 µM (≈ 0.34 µg/mL); in [3], 0.85 µM (≈ 0.34 µg/mL); in the data set on S. aureus (ATCC 23235), 0.91 µM (≈ 0.364 µg/mL). Moreover, the values for the MBC in the data set with E. coli R3 (ATCC 11775) and in the data set on E. coli K12 (ATCC 25404) were 1.52 µM (≈ 0.609 µg/mL) and 0.79 µM (≈ 0.316 µg/mL), respectively. In data set [2], this compound registered an inhibition at 100 µM of less than 10%. Further, the viability at 24 h, 1 µM in “MTT cytotoxicity assay” was 86.9%.
On to `COc1ccc(CNC(=O)C(c2ccc(O)c(O)c2)N(Cc2ccc(OC)cc2)C(=O)Cc2ccccc2)cc1` (stereo not drawn) [Compound 5b, 2-(3,4-dihydroxyphenyl)-N-(4-methoxybenzyl)-2-(N-(4-methoxybenzyl)-2-phenylacetamido)-acetamide], for which the MIC in data set [1] was found to be 0.96 µM (≈ 0.519 µg/mL); in the data set on E. coli R4 (ATCC 39543), 2 µM (≈ 1.08 µg/mL); against E. coli R2 (ATCC 39544) it was 0.98 µM (≈ 0.53 µg/mL); against E. cloacae (ATCC 49141), 1 µM (≈ 0.541 µg/mL); in [3], 0.83 µM (≈ 0.449 µg/mL); in the data set with S. aureus (ATCC 23235), 0.9 µM (≈ 0.487 µg/mL). Also, the MIC amounted to 1.61 µM (≈ 0.87 µg/mL) in the data set with E. coli R3 (ATCC 11775) and 0.45 µM (≈ 0.243 µg/mL) against E. coli K12 (ATCC 25404). Further, the MBC in [1] stood at 0.99 µM (≈ 0.535 µg/mL); in the data set on E. coli R4 (ATCC 39543), 2.21 µM (≈ 1.19 µg/mL); against E. coli R2 (ATCC 39544) it was 1.03 µM (≈ 0.557 µg/mL); against E. cloacae (ATCC 49141), 1.05 µM (≈ 0.568 µg/mL); in data set [3], 0.9 µM (≈ 0.487 µg/mL); against S. aureus (ATCC 23235), 0.96 µM (≈ 0.519 µg/mL). Moreover, the MBC was determined as 1.7 µM (≈ 0.919 µg/mL) with E. coli R3 (ATCC 11775) and 0.61 µM (≈ 0.33 µg/mL) against E. coli K12 (ATCC 25404). This compound registered an inhibition at 100 µM in data set [2] greater than 10%.
Consider `CCCCN(C(C)=O)C(C(=O)NCc1ccc(F)cc1)c1ccc(O)c(O)c1` (stereo not drawn) [Compound 5r, 2-(N-butylacetamido)-2-(3,4-dihydroxyphenyl)-N-(4-fluorobenzyl)acetamide], for which the MIC in data set [1] is 1.64 µM (≈ 0.637 µg/mL); with E. coli R4 (ATCC 39543), 3.13 µM (≈ 1.22 µg/mL); against E. coli R2 (ATCC 39544), 1.5 µM (≈ 0.583 µg/mL); against E. cloacae (ATCC 49141), 1.67 µM (≈ 0.649 µg/mL); in data set [3], 1.26 µM (≈ 0.489 µg/mL); against S. aureus (ATCC 23235), 1.51 µM (≈ 0.587 µg/mL). The values for the MIC against E. coli R3 (ATCC 11775) and against E. coli K12 (ATCC 25404) were 2.56 µM (≈ 0.994 µg/mL) and 0.74 µM (≈ 0.287 µg/mL), respectively. The MBC amounted to 1.49 µM (≈ 0.579 µg/mL) in data set [1]; 3.5 µM (≈ 1.36 µg/mL) against E. coli R4 (ATCC 39543); 1.51 µM (≈ 0.587 µg/mL) against E. coli R2 (ATCC 39544); 1.5 µM (≈ 0.583 µg/mL) in the data set on E. cloacae (ATCC 49141); 1.31 µM (≈ 0.509 µg/mL) in data set [3]; 1.54 µM (≈ 0.598 µg/mL) in the data set on S. aureus (ATCC 23235). Also, the results for the MBC in the data set on E. coli R3 (ATCC 11775) and against E. coli K12 (ATCC 25404) were 3.14 µM (≈ 1.22 µg/mL) and 0.94 µM (≈ 0.365 µg/mL), respectively. The compound further gave an inhibition at 100 µM in data set [2] of less than 10%.
Consider `CCCCN(C(C)=O)C(C(=O)NCc1ccccc1)c1ccc(O)c(O)c1` (stereo not drawn) [Compound 5p, N-benzyl-2-(N-butylacetamido)-2-(3,4-dihydroxyphenyl)acetamide], for which the MIC in data set [1] was 0.88 µM (≈ 0.326 µg/mL); in the data set on E. coli R4 (ATCC 39543) it was 1.58 µM (≈ 0.585 µg/mL); in the data set on E. coli R2 (ATCC 39544), 0.84 µM (≈ 0.311 µg/mL); with E. cloacae (ATCC 49141), 0.86 µM (≈ 0.319 µg/mL); in data set [3], 0.87 µM (≈ 0.322 µg/mL); in the data set with S. aureus (ATCC 23235), 0.87 µM (≈ 0.322 µg/mL). Moreover, the MIC against E. coli R3 (ATCC 11775) worked out at 1.27 µM (≈ 0.47 µg/mL); against E. coli K12 (ATCC 25404) it was 0.33 µM (≈ 0.122 µg/mL). For the same compound, the MBC in data set [1] came out at 0.94 µM (≈ 0.348 µg/mL); with E. coli R4 (ATCC 39543), 1.7 µM (≈ 0.63 µg/mL); in the data set with E. coli R2 (ATCC 39544), 1.51 µM (≈ 0.559 µg/mL); with E. cloacae (ATCC 49141) it was 0.94 µM (≈ 0.348 µg/mL); in data set [3], 0.9 µM (≈ 0.333 µg/mL); against S. aureus (ATCC 23235) it was 0.94 µM (≈ 0.348 µg/mL). Also, the MBC against E. coli R3 (ATCC 11775) was found to be 1.64 µM (≈ 0.608 µg/mL); against E. coli K12 (ATCC 25404), 0.89 µM (≈ 0.33 µg/mL). For the same compound, in data set [2], the inhibition at 100 µM was greater than 10%.
